Source: patent US20070093476A1, “Novel compounds and their use in medicine,as antidiabetic and hypolipidemic agents, process for their preparation and pharmaceutical compositions containing them” (priority 2003, published 2007)
Where a name gives a salt, the structure may show the parent alone. Read-outs that look alike come from different tables or passages of the source.

Assays:
hPPARα = target: T1, hPPARα (Homo sapiens, UniProt Q07869); assay: Determination of hPPARα activity (GAL4-LBD luciferase reporter transactivation in HEK-293 cells); type: cell-based; details: 50 μM compound
T1 construct: expressed in transfected cells; host or cells: HEK-293
T1 sequence (Q07869 239-466 limits assumed): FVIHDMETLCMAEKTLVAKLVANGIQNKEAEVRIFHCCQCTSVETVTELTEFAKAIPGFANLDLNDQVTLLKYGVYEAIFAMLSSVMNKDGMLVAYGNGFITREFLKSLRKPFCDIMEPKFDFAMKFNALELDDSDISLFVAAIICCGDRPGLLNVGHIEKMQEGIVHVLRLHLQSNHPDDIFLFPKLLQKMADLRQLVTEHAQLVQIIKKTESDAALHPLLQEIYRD
Procedure: a) Determination of hPPARα Activity Ligand binding domain of hPPARα was fused to […] of Yeast transcription factor GAL4 in eucaryotic expression vector. Using superfect (Qiagen, Germany) as transfecting reagent HEK-293 cells are transfected with this plasmid and a reporter plasmid harboring the luciferase gene driven by a GAL4 specific promoter. Compound can be added at different concentrations after 42 hrs of transfection and incubated overnight. Luciferase activity as a function of compound binding/activation capacity of PPARα will be measured using Packard Luclite kit (Packard, USA) in Top Count (Ivan Sadowski, Brendan Bell, Peter Broag and Melvyn Hollis. Gene. 1992. 118 : 137-141; Superfect Transfection Reagent Handbook. February 1997. Qiagen, Germany).

hPPARγ1 = target: T2, hPPARγ1 (Homo sapiens, UniProt P37231); assay: Determination of hPPARγ activity (GAL4-LBD luciferase reporter transactivation in HEK-293 cells); type: cell-based; details: 1 μM compound
T2 construct: expressed in transfected cells; host or cells: HEK-293
T2 sequence (P37231 238-503 limits assumed): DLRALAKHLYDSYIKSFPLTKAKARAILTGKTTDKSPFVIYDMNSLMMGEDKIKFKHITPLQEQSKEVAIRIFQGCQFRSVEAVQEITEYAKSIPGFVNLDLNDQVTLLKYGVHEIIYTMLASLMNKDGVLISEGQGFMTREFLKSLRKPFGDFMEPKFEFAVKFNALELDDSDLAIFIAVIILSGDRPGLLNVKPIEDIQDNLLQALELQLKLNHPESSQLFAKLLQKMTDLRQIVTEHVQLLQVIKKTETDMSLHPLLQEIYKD
Procedure: b) Determination of hPPARγ Activity
Ligand binding domain of hPPARγ1 is fused to DNA binding domain of Yeast transcription factor GAL4 in eucaryotic expression vector. Using lipofectamine (Gibco BRL, USA) as transfecting reagent HEK-293 cells are transfected with this plasmid and a reporter plasmid harboring the luciferase gene driven by a GAL4 specific promoter. Compound can be added at 1 μM concentration after 48 hrs of transfection and incubated overnight Luciferase activity as a function of drug binding/activation capacity of PPARγ1 will be measured using Packard Luclite kit (Packard, USA) in Packard Top Count (Ivan Sadowski, Brendan Bell, Peter Broag and Melvyn Hollis. Gene. 1992. 118 : 137-141; Guide to Eukaryotic Transfections with Cationic Lipid Reagents. Life Technologies, GIBCO BRL, USA).

Swiss albino mice = assay: Plasma triglyceride lowering activity in Swiss albino mice; type: in vivo; details: Mus musculus, 144 h, read-out: % of Reduction in Triglyceride
Procedure: b) Plasma Triglyceride and Total Cholesterol Lowering Activity in Swiss Albino Mice and Guinea Pigs
Male Swiss albino mice (SAM) and male Guinea pigs are obtained from NIN and housed in DRF animal house. All these animals are maintained under 12 hour light and dark cycle at 25±1° C. Animals are given standard laboratory chow (NIN, Hyderabad, India) and water, ad libitum. SAM of 20-25 g body weight range and Guinea pigs of 500-700 g body weight range are used (Oliver, P., Plancke, M. O., Marzin, D., Clavey, V., Sauzieres, J and Fruchart, J. C. Effects of fenofibrate, gemfibrozil and nicotinic acid on plasma lipoprotein levels in normal and hyperlipidemic mice. Atherosclerosis. 1988. 70 : 107-114).
The test compounds can be administered orally to Swiss albino mice at 0.3 to 30 mg/kg/day dose for 6 days. Control mice are treated with vehicle (0.25% Carboxymethylcellulose; dose 10 ml/kg). The test compounds are administered orally to Guinea pigs at 0.3 to 30 mg/kg/day dose for 6 days. Control animals are treated with vehicle (0.25% Carboxymethylcellulose; dose 5 ml/kg).
The blood samples can be collected in fed state 1 hour after drug administration on 0 and 6 day of treatment. The blood can be collected from the retro-orbital sinus through heparinised capillary in EDTA containing tubes. After centrifugation, plasma sample was separated for triglyceride and total cholesterol (Wieland, O. Methods of Enzymatic analysis. Bergermeyer, H. O., Ed., 1963. 211-214; Trinder, P. Ann. Clin. Biochem. 1969. 6 : 24-27). Measurement of plasma triglyceride, total cholesterol and HDL are done using commercial kits (Dr. Reddy's Diagnostic Division, Hyderabad, India).

C57BL/KsJ-db/db mice = assay: Efficacy in genetic model: plasma glucose and triglyceride lowering in db/db mice; type: in vivo; details: 3 mg/kg/d oral gavage, 6 days
Text: a) Efficacy in Genetic Models
Mutation in colonies of laboratory animals and different sensitivities to dietary regimens have made the development of animal models with non-insulin dependent diabetes and hyperlipidemia associated with obesity and insulin resistance possible. Genetic models such as db/db and ob/ob (Diabetes, (1982) 31(1) : 1-6) mice and zucker fa/fa rats have been developed by the various laboratories for understanding the pathophysiology of disease and testing the efficacy of new antidiabetic compounds (Diabetes, (1983) 32: 830-838; Annu. Rep. Sankyo Res. Lab. (1994). 46: 1-57). The homozygous animals, C57 BL/KsJ-db/db mice developed by Jackson Laboratory, US, are obese, hyperglycemic, hyperinsulinemic and insulin resistant (J. Clin. Invest., (1990) 85 : 962-967), whereas heterozygous are lean and normoglycemic. […]
The random blood sugar and triglyceride levels can be measured by collecting blood (100 μl) through orbital sinus, using heparinised capillary in tubes containing EDTA which was centrifuged to obtain plasma. The plasma glucose and triglyceride levels can be measured spectrometrically, by glucose oxidase and glycerol-3-PO4 oxidase/peroxidase enzyme (Dr. Reddy's Lab. Diagnostic Division Kits, Hyderabad, India) methods respectively.

[1] = Swiss albino mice, 3 mg/kg/d oral, 6 days

Structure (SMILES)	PPAR fold activation, PPAR α at 50 μM concentration (hPPARα) [fold]	PPAR fold activation, PPAR γ at 1 μM concentration (hPPARγ1) [fold]	melting point [°C]	inhibition in vivo at 3 mg/kg/day (Swiss albino mice; [1]) [%]	% of Reduction in Triglyceride (C57BL/KsJ-db/db mice) [%]	% of reduction in Plasma glucose (C57BL/KsJ-db/db mice) [%]	inhibition in vivo at 3 mg/kg/day (Swiss albino mice; po) [%]	inhibition in vivo at 10 mg/kg/day (Swiss albino mice; po) [%]
CCOC(=O)[C@H](Cc1ccc(NCc2ccc3cc(OS(C)(=O)=O)ccc3c2)cc1)OC [Example 1, (S)-Ethyl 2-methoxy-3-[4-(6-methanesulfonyloxynapth-2-ylmethylamino)phenyl]propanoate]	2.7	9.2	94 to 96					
CCOC(=O)C(Cc1ccc(NCc2ccc3cc(OS(C)(=O)=O)ccc3c2)cc1)OCC (stereo not drawn) [Example 2, Ethyl 2-ethoxy-3-[4-{6-methanesulfonyloxynapth-2-ylmethylamino}phenyl]propanoate]	3.5	15.5	118 to 120	50				
CCOC(Cc1ccc(NCc2ccc3cc(OS(C)(=O)=O)ccc3c2)cc1)C(=O)O (stereo not drawn) [Example 24, 2-Ethoxy-3-[4-{6-methanesulfonyloxynapth-2-ylmethylamino}phenyl]propanoic acid]	7.4	4.5	168 to 170	46				
CO[C@@H](Cc1ccc(NCc2ccc3cc(OS(C)(=O)=O)ccc3c2)cc1)C(=O)O [Example 45, (S)-2-Methoxy-3-[4-{6-methanesulfonyloxynapth-2-ylmethylamino}phenyl]propanoic acid Arginine salt]	5.2	1.4			28	32	60	
CCOC(CCCc1ccc(NCc2ccc3cc(OS(C)(=O)=O)ccc3c2)cc1)C(=O)O (stereo not drawn) [Example 46, 2-Ethoxy-5-[4-{6-methanesulfonyloxynapth-2-ylmethylamino}phenyl]pentatonic acid Arginine salt]	3.2	2.1						12
CCOC(Cc1ccc(NCCCn2ccc3ccccc32)cc1)C(=O)O (stereo not drawn) [Example 47, 2-Ethoxy-3-[4-{3-(indol-1-yl)propylamino}phenyl]propanoic acid Arginine salt]	4.8	6.7					60	
CO[C@@H](Cc1ccc(NCCCn2ccc3ccccc32)cc1)C(=O)O [Example 48, (S)-2-Methoxy-3-[4-{3-(indol-1-yl)propylamino}phenyl]propanoic acid Arginine salt]	4.6	6.1					27	
CCO[C@@H](Cc1ccc(NCCCn2ccc3cc(OS(C)(=O)=O)ccc32)cc1)C(=O)O [Example 49, (S)-2-Ethoxy-3-[4-{3-(5-methanesulfonyloxyindol-1-yl)propylamino}phenyl]propanoic acid Arginine salt]	3.6	1.5					54	
CO[C@@H](Cc1ccc(NCCCn2ccc3cc(OS(C)(=O)=O)ccc32)cc1)C(=O)O [Example 50, (S)-2-Methoxy-3-[4-{3-(5-methanesulfonyloxyindol-1-yl)propylamino}phenyl]propanoic acid Arginine salt]	3.5	1.4					31	
CCOC(Cc1ccc(NCCCN2CCc3ccccc32)cc1)C(=O)O (stereo not drawn) [Example 52, 2-Ethoxy-3-[4-{3-2,3-dihydroindol-1-yl)propylamino}phenyl]propanoic acid Arginine salt]	4.0	6						
CCOC(Cc1ccc(NCC2CCc3cc(OS(C)(=O)=O)ccc3C2)cc1)C(=O)O (stereo not drawn) [Example 53, 2-Ethoxy-3-[4-{(6-methanesulfonyloxy-1,2,3,4-tetrahydronapth-2-yl)methylamino}phenyl]propanoic acid Arginine salt]	3.7	5.8					79	
CCOC(Cc1ccc(NCCCN2CCCc3ccccc32)cc1)C(=O)O (stereo not drawn) [Example 55, 2-Ethoxy-3-[4-{3-1,2,3,4-tetrahydroquinolyn-1-yl)propylamino}phenyl]propanoic acid Arginine salt]	3.8	11.9					60	
